Experiment [1] concerns LL29 cells (primary human fibroblasts derived from IPF patients), α-smooth muscle actin. The experiment is described as follows: Inhibition of fibrotic process: TGF-β1-treated primary human fibroblasts, αSMA staining.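 On all read-outs here: controls were TGF-β1-stimulated wells with DMSO vehicle as the positive reference and cells given DMSO alone as the negative reference.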 The note with it: Homo sapiens, Fibroblast; for EC50: 96 h, TGF-β1 20 ng/mL, 4 days, % cells positive for αSMA; for inhibition at 10 µM: read-out: percent inhibition at 10 μM (given for EC50 >10 μM), TGF-β1, αSMA, 10 μM. The experiment is classed as cell-based.

In experiment [2] the test system is IL-6 in human peripheral blood mononuclear cells (huPBMCs). Kind of experiment: IL-6 inhibition in LPS-stimulated human peripheral blood mononuclear cells (HTRF). The experiment is classed as cell-based. The conditions noted are these: Homo sapiens, PBMC; for EC50: LPS 50 ng/mL, 22 hours, IL-6 HTRF; for inhibition at 10 µM: read-out: percent inhibition at 10 μM (given for EC50 >10 μM), LPS, IL-6, 10 μM. In a few lines: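 Compound-treated huPBMCs (1×10e6 cells/mL, 1% FBS-RPMI) were stimulated after 2 h with LPS (50 ng/mL) for another 22 h at 37° C. An anti-IL-6 HTRF pair reported IL-6 as the 665/620 nm ratio; activity relative to DMSO, EC50 by 4-parameter Levenberg-Marquardt fitting, duplicates.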

Experiment [3] concerns SW480 colon carcinoma cells. The experiment is described as follows: Cell viability assay (CellTiter-Glo). The experiment is classed as cell-based, human. The note with it: Homo sapiens; for EC50: 96 h, four days, CellTiter-Glo; for inhibition at 10 µM: read-out: percent inhibition at 10 μM (given for EC50 >10 μM), 10 μM.
A further experiment has as its target recombinant GSK3β kinase (Homo sapiens (Human), UniProt P49841). Kind of experiment: GSK3β kinase assay (Ser/Thr 09 peptide Z-lyte, FRET).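 Further: FRET read-out as coumarin over fluorescein emission ratio, compounds incubated one hour at room temperature, IC50 from dose-response curve fit.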 The format is biochemical. The conditions noted are these: GSK3β kinase; head says EC50, method says IC50; ATP 46 μM.
In experiment [4] the target is recombinant DYRK1A kinase (Homo sapiens (Human), UniProt Q13627). Kind of experiment: DYRK1A kinase assay (Ser/Thr 18 peptide Z-lyte, FRET). The conditions noted are these: DYRK1A kinase; head says EC50, method says IC50; ATP 30 μM.
The subject of experiment [5] is Wnt activity (SW480 colon carcinoma cells stably expressing the Sp5-Luc reporter gene). Kind of experiment: Wnt activity screening assay (Sp5-Luc reporter gene assay). The note with it: Homo sapiens; for EC50: 36 to 48 hours; for inhibition at 10 µM: read-out: percent inhibition at 10 μM (given for EC50 >10 μM), 10 μM. The format is cell-based, human. In a few lines: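 EC50 values come from a variable-slope four-parameter fit of luminescence normalized to DMSO-only wells. The read-out follows 36–48 h incubation at 37 °C, 5% CO2, in DMEM containing 1% fetal bovine serum. Cells are hygromycin-selected SW480 stably expressing firefly luciferase under a Wnt-responsive Sp5 promoter (eight TCF/LEF sites).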

Structures are written as SMILES.

recombinant GSK3β kinase, sequence (P49841 whole entry): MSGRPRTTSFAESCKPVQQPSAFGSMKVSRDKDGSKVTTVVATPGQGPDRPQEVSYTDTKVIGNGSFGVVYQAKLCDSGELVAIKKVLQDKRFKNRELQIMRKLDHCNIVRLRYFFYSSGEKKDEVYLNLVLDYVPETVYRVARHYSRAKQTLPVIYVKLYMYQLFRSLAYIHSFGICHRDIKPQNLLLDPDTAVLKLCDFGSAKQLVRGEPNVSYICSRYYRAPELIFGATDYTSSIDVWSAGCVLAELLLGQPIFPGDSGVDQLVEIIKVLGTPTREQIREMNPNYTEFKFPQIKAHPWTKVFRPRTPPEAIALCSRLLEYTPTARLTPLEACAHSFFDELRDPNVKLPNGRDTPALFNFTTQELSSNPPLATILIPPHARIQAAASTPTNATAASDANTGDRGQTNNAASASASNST

As for `CN1CCC(n2cc(C(=O)Nc3cc4cc(-c5cnc6cc[nH]c6c5)ccc4cn3)cn2)CC1` [Compound 127, N-(6-(1H-Pyrrolo[3,2-b]pyridin-6-yl)isoquinolin-3-yl)-1-(1-methylpiperidin-4-yl)-1H-pyrazole-4-carboxamide], the EC50 in experiment [1] is 272 nM; in experiment [2] it was 1560 nM; in experiment [3], 74 nM; at recombinant GSK3β kinase, greater than 10000 nM; in experiment [4], 5 nM; in experiment [5], 27 nM.
Regarding `CN1CCC(n2cc(C(=O)Nc3cc4cc(-c5cncc6[nH]ccc56)ccc4cn3)cn2)CC1` [Compound 128, N-(6-(1H-Pyrrolo[2,3-c]pyridin-4-yl)isoquinolin-3-yl)-1-(1-methylpiperidin-4-yl)-1H-pyrazole-4-carboxamide], the concentration giving a half-maximal response (EC50) is 102 nM in experiment [1]; 678 nM in experiment [2]; 31 nM in experiment [3]; 9070 nM on recombinant GSK3β kinase; 4 nM in experiment [4]; 13 nM in experiment [5].
In the case of `CN1CCN(c2cc(C(=O)Nc3cc4cc(-c5cnc6[nH]ccc6c5)ccc4cn3)ccn2)CC1` [Compound 129, N-(6-(1H-Pyrrolo[2,3-b]pyridin-5-yl)isoquinolin-3-yl)-2-(4-methylpiperazin-1-yl)isonicotinamide], the EC50 in experiment [1] is 699 nM; in experiment [2], 3360 nM; in experiment [3] it was 1170 nM; at recombinant GSK3β kinase, greater than 10000 nM; in experiment [4] it was 18 nM; in experiment [5], 1370 nM.
As to `CN1CCN(c2cc(C(=O)Nc3cc4cc(-c5cnc6cc[nH]c6c5)ccc4cn3)ccn2)CC1` [Compound 130, N-(6-(1H-Pyrrolo[3,2-b]pyridin-6-yl)isoquinolin-3-yl)-2-(4-methylpiperazin-1-yl)isonicotinamide], the EC50 in experiment [1] is 941 nM; in experiment [2], 3920 nM; in experiment [3], 501 nM; at recombinant GSK3β kinase, greater than 10000 nM; in experiment [4], 4 nM; in experiment [5] it was 378 nM.
For the molecule `CN1CCN(c2cc(C(=O)Nc3cc4cc(-c5cncc6[nH]ccc56)ccc4cn3)ccn2)CC1` [Compound 131, N-(6-(1H-Pyrrolo[2,3-c]pyridin-4-yl)isoquinolin-3-yl)-2-(4-methylpiperazin-1-yl)isonicotinamide], the EC50 was 604 nM in experiment [1]; 2900 nM in experiment [2]; 285 nM in experiment [3]; greater than 10000 nM at recombinant GSK3β kinase; 3 nM in experiment [4]; 235 nM in experiment [5].
In the case of `Cc1cc2cc(-c3ccc4cnc(NC(=O)c5ccnc(N6CCN(C)CC6)c5)cc4c3)cnc2[nH]1` [Compound 133, N-(6-(2-Methyl-1H-pyrrolo[2,3-b]pyridin-5-yl)isoquinolin-3-yl)-2-(4-methylpiperazin-1-yl)isonicotinamide], the EC50 in experiment [1] is 4030 nM; in experiment [2], 3280 nM; in experiment [3] it was 3740 nM; at recombinant GSK3β kinase, greater than 10000 nM; in experiment [4] it was 57 nM; in experiment [5], 4080 nM.
Consider `Cc1c[nH]c2ncc(-c3ccc4cnc(NC(=O)c5ccnc(N6CCN(C)CC6)c5)cc4c3)cc12` [Compound 134, N-(6-(3-Methyl-1H-pyrrolo[2,3-b]pyridin-5-yl)isoquinolin-3-yl)-2-(4-methylpiperazin-1-yl)isonicotinamide], for which the EC50 in experiment [1] is 2750 nM; in experiment [2], 8810 nM; in experiment [3], 3930 nM; on recombinant GSK3β kinase, greater than 10000 nM; in experiment [4], 54 nM; in experiment [5] it was 6210 nM.
For `CN1CCN(c2cc(C(=O)Nc3cc4cc(-c5cnc6[nH]ccc6n5)ccc4cn3)ccn2)CC1` [Compound 136, N-(6-(5H-Pyrrolo[2,3-b]pyrazin-2-yl)isoquinolin-3-yl)-2-(4-methylpiperazin-1-yl)isonicotinamide], the EC50 in experiment [1] was 933 nM; in experiment [2], 9060 nM; in experiment [3] it was 1240 nM; at recombinant GSK3β kinase, greater than 10000 nM; in experiment [4], 38 nM; in experiment [5], 1730 nM.
As for `CN1CCN(c2cc(C(=O)Nc3cc4cc(-c5cnc6cc[nH]c6n5)ccc4cn3)ccn2)CC1` [Compound 137, N-(6-(5H-Pyrrolo[2,3-b]pyrazin-3-yl)isoquinolin-3-yl)-2-(4-methylpiperazin-1-yl)isonicotinamide], the EC50 in experiment [1] was greater than 10000 nM; in experiment [2], greater than 10000 nM; in experiment [3], 1220 nM; on recombinant GSK3β kinase it was greater than 10000 nM; in experiment [4] it was 27 nM; in experiment [5], greater than 10000 nM. The inhibition at 10 µM amounted to 34.2% in experiment [1], 3.9% in experiment [2] and 19.8% in experiment [5].
As for `CC(C)n1cc(C(=O)Nc2cc3cc(-c4cncc(NC5CCNCC5)n4)ccc3cn2)cn1` [Compound 138, 1-Isopropyl-N-(6-(6-(piperidin-4-ylamino)pyrazin-2-yl)isoquinolin-3-yl)-1H-pyrazole-4-carboxamide], the EC50 in experiment [1] was 78 nM; in experiment [2], 2760 nM; in experiment [3], 71 nM; at recombinant GSK3β kinase it was greater than 10000 nM; in experiment [4], 2 nM; in experiment [5], 39 nM.
On to `CC(C)n1cc(C(=O)Nc2cc3cc(-c4cncc(NC5CCN(C)CC5)n4)ccc3cn2)cn1` [Compound 139, 1-Isopropyl-N-(6-(6-((1-methylpiperidin-4-yl)amino)pyrazin-2-yl)isoquinolin-3-yl)-1H-pyrazole-4-carboxamide], for which the 50% effective concentration (EC50) was 148 nM in experiment [1]; 361 nM in experiment [2]; 52 nM in experiment [3]; greater than 10000 nM at recombinant GSK3β kinase; 2 nM in experiment [4]; 32 nM in experiment [5].
For the molecule `O=C(Nc1cc2cc(-c3cccnc3)ccc2cn1)c1coc(C2CCNCC2)n1` [Compound 140, 2-(Piperidin-4-yl)-N-(6-(pyridin-3-yl)isoquinolin-3-yl)oxazole-4-carboxamide], the EC50 was 1680 nM in experiment [1]; 3400 nM in experiment [2]; 724 nM in experiment [3]; greater than 10000 nM on recombinant GSK3β kinase; 1050 nM in experiment [4]; greater than 10000 nM in experiment [5]. Besides, the inhibition at 10 µM in experiment [5] turned out to be 6.6%.
Consider `O=C(Nc1cc2cc(-c3cncc(F)c3)ccc2cn1)c1coc(C2CCNCC2)n1` [Compound 141, N-(6-(5-Fluoropyridin-3-yl)isoquinolin-3-yl)-2-(piperidin-4-yl)oxazole-4-carboxamide], for which the EC50 in experiment [1] was 1510 nM; in experiment [2], 9000 nM; in experiment [3], 5880 nM; at recombinant GSK3β kinase, greater than 10000 nM; in experiment [4], 306 nM; in experiment [5] it was 4010 nM.
Take `CN1CCC(c2nc(C(=O)Nc3cc4cc(-c5cccnc5)ccc4cn3)co2)CC1` [Compound 142, 2-(1-Methylpiperidin-4-yl)-N-(6-(pyridin-3-yl)isoquinolin-3-yl)oxazole-4-carboxamide]: the EC50 in experiment [1] is greater than 10000 nM; in experiment [2] it was greater than 10000 nM; in experiment [3], greater than 10000 nM; on recombinant GSK3β kinase, greater than 10000 nM; in experiment [4] it was 689 nM; in experiment [5], 3500 nM. The inhibition at 10 µM in experiment [1] stood at 8.8%; in experiment [2], 7.8%; in experiment [3] it was 16.9%.
Regarding `CN1CCC(c2nc(C(=O)Nc3cc4cc(-c5cncc(F)c5)ccc4cn3)co2)CC1` [Compound 143, N-(6-(5-Fluoropyridin-3-yl)isoquinolin-3-yl)-2-(1-methylpiperidin-4-yl) oxazole-4-carboxamide], the EC50 in experiment [1] was 2440 nM; in experiment [2] it was greater than 10000 nM; in experiment [3] it was greater than 10000 nM; on recombinant GSK3β kinase, greater than 10000 nM; in experiment [4] it was 6800 nM; in experiment [5], greater than 10000 nM. In addition, the inhibition at 10 µM amounted to 8.2% in experiment [2], 8% in experiment [3] and 0.8% in experiment [5].
In the case of `Nc1cncc(-c2ccc3cnc(NC(=O)c4coc(C5CCNCC5)n4)cc3c2)c1` [Compound 148, N-(6-(5-Aminopyridin-3-yl)isoquinolin-3-yl)-2-(piperidin-4-yl)oxazole-4-carboxamide], the EC50 in experiment [1] is 1190 nM; in experiment [2], 1780 nM; in experiment [3], 441 nM; on recombinant GSK3β kinase, greater than 10000 nM; in experiment [4], 12 nM; in experiment [5] it was 266 nM.
On to `CC(C)N1CCC(c2nc(C(=O)Nc3cc4cc(-c5cccnc5)ccc4cn3)co2)CC1` [Compound 149, 2-(1-Isopropylpiperidin-4-yl)-N-(6-(pyridin-3-yl)isoquinolin-3-yl)oxazole-4-carboxamide], for which the EC50 in experiment [1] was 3400 nM; in experiment [2] it was 3780 nM; in experiment [3], greater than 10000 nM; at recombinant GSK3β kinase, greater than 10000 nM; in experiment [4] it was 102 nM; in experiment [5] it was 7840 nM. For the same molecule, the inhibition at 10 µM in experiment [3] is 39%.

The values are drawn from patent publication US10653688B2, “6-(6-membered heteroaryl and aryl)isoquinolin-3-yl carboxamides and preparation and use thereof” (Samumed, LLC, priority 2017, dated 2020).
